Data from the supplement of paper PMC10307832.

Legend:
Assay in all cases: relative viability (nuclei count vs DMSO), 5 days (fraction); higher = more cells survive
[1] = compound: CC[C@H](C)N1C=C(C2=C(C=C(C=C21)C3=CN=C(C=C3)N4CCNCC4)C(=O)NCC5=C(C=C(NC5=O)C)C)C [GSK126] + Cc1nc(NC(=O)N2CCC[C@H]2C(N)=O)sc1-c1ccnc(C(C)(C)C(F)(F)F)c1 [Alpelisib] (partner 2 µM)
How it was run: (§1)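 Nuclei were stained with Hoechst during a one-step fixation (final 0.05% Triton X-100, 1% formaldehyde, 1 ug/ml Hoechst) carried out 5 days after dosing, then counted on 4× images. The cells, lung cancer lines in 1536-well plates, had been dosed by pin tool the day after seeding with one drug alone or a fixed anchor-drug dose plus five library-drug doses (not always all listed) in √10 steps. Relative viability is the nuclei count in treated wells divided by that in vehicle wells, and each value is the median of duplicate plates.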

[2] = compound: NS(=O)(=O)OC[C@@H]1C[C@@H](n2ccc3c(N[C@H]4CCc5ccccc54)ncnc32)C[C@@H]1O [MLN4924] + Cc1nc(NC(=O)N2CCC[C@H]2C(N)=O)sc1-c1ccnc(C(C)(C)C(F)(F)F)c1 [Alpelisib] (partner 2 µM)
How it was run: as §1

[3] = compound: CC[C@H](C)N1C=C(C2=C(C=C(C=C21)C3=CN=C(C=C3)N4CCNCC4)C(=O)NCC5=C(C=C(NC5=O)C)C)C [GSK126] + C[C@@H](Oc1cc(-c2cnn(C3CCNCC3)c2)cnc1N)c1c(Cl)ccc(F)c1Cl [Crizotinib] (partner 1 µM)
How it was run: as §1

[4] = compound: C1CC(C1)(C(=O)O)C(=O)O.[NH2-].[NH2-].[Pt+2] [Carboplatin] + Cc1nc(NC(=O)N2CCC[C@H]2C(N)=O)sc1-c1ccnc(C(C)(C)C(F)(F)F)c1 [Alpelisib] (partner 2 µM)
How it was run: as §1

Row | Cell Line | relative viability ([1]; first compound 0.08 µM) | relative viability ([1]; first compound 0.253 µM) | relative viability ([1]; first compound 0.8 µM) | relative viability ([1]; first compound 2.53 µM) | relative viability ([1]; first compound 8 µM) | relative viability ([2]; first compound 0.04 µM) | relative viability ([2]; first compound 0.1265 µM) | relative viability ([2]; first compound 0.4 µM) | relative viability ([2]; first compound 1.265 µM) | relative viability ([2]; first compound 4 µM) | relative viability ([3]; first compound 0.08 µM) | relative viability ([3]; first compound 0.253 µM) | relative viability ([3]; first compound 0.8 µM) | relative viability ([3]; first compound 2.53 µM) | relative viability ([3]; first compound 8 µM) | relative viability ([4]; first compound 0.08 µM) | relative viability ([4]; first compound 0.253 µM) | relative viability ([4]; first compound 0.8 µM) | relative viability ([4]; first compound 2.53 µM) | relative viability ([4]; first compound 8 µM)
1 | HCC-44 | 0.884 | 0.841 | 0.813 | 0.81 | 0.859 | 0.7 | 0.347 | 0.162 | 0.15 | 0.134 | 0.766 | 0.864 | 0.788 | 0.64 | 0.78 | 0.904 | 0.887 | 0.733 | 0.717 | 0.635
2 | HCC-78 | 0.413 | 0.304 | 0.287 | 0.301 | 0.372 | 0.429 | 0.253 | 0.536 | 0.149 | 0.139 | 0.306 | 0.326 | 0.318 | 0.328 | 0.374 | 0.291 | 0.391 | 0.317 | 0.285 | 0.33
3 | HCC-366 | 0.452 | 0.342 | 0.381 | 0.546 | 0.409 | 0.58 | 0.733 | 0.877 | 0.369 | 0.027 | 0.652 | 0.548 | 0.549 | 0.475 | 0.431 | 0.476 | 0.552 | 0.344 | 0.294 | 0.314
4 | HCC-827 | 1.06 | 1 | 1.03 | 0.997 | 0.982 | 0.893 | 0.47 | 0.595 | 0.234 | 0.159 | 0.938 | 0.895 | 0.934 | 1.02 | 0.869 | 1.07 | 0.962 | 0.9 | 0.944 | 0.893
5 | HOP-62 | 0.998 | 1.14 | 0.974 | 0.727 | 0.917 | 0.903 | 0.627 | 0.29 | 0.0619 | 0.0676 | 0.965 | 0.996 | 0.788 | 0.726 | 0.928 | 0.746 | 0.991 | 1.09 | 0.922 | 0.77
6 | IA-LM | 0.893 | 0.927 | 0.784 | 0.724 | 0.664 | 0.494 | 0.2 | 0.153 | 0.0773 | 0.0621 | 0.831 | 1.12 | 0.79 | 0.729 | 0.947 | 0.995 | 0.904 | 0.669 | 0.881 | 0.465
7 | LC-2-ad | 0.927 | 0.967 | 0.773 | 0.793 | 0.9 | 0.834 | 0.729 | 0.41 | 0.153 | 0.0751 | 0.484 | 0.357 | 0.512 | 0.454 | 0.398 | 0.876 | 0.906 | 0.88 | 0.882 | 0.786
8 | LCLC-97TM1 | 0.254 |  | 0.22 | 0.374 | 0.217 | 0.255 | 0.208 | 0.129 | 0.114 | 0.119 | 0.337 |  | 0.42 | 0.475 | 0.441 | 0.262 |  | 0.25 | 0.256 | 0.199
9 | LCLC-103H | 0.953 | 1.02 | 0.927 | 0.992 | 1.03 | 1.14 | 1.18 | 1.12 | 0.234 | 0.342 | 1.07 | 1.18 | 1.01 | 1.01 | 1 | 1.1 | 0.975 | 1.09 | 1 | 0.934
10 | LK-2 | 1.09 | 0.993 | 0.734 | 1.13 | 0.876 | 0.991 | 0.886 | 0.667 | 0.267 | 0.299 | 0.282 | 0.224 | 0.243 | 0.252 | 0.206 | 1.41 | 1.23 | 0.837 | 0.961 | 1.09
11 | LOU-NH91 | 0.778 | 0.694 | 0.696 | 0.721 | 0.722 | 0.804 | 1.02 | 0.855 | 0.407 | 0.476 | 0.759 | 0.71 | 0.737 | 0.773 | 0.727 | 0.797 | 0.731 | 0.7 | 0.688 | 0.688
12 | LU99A | 0.554 | 0.512 | 0.52 | 0.572 | 0.594 | 0.418 | 0.244 | 0.299 | 0.173 | 0.153 | 0.649 | 0.545 | 0.537 | 0.543 | 0.525 | 0.623 | 0.584 | 0.493 | 0.522 | 0.365
13 | LXF-289 | 1.1 | 1.05 | 1.02 | 1.01 | 1.02 | 0.814 | 0.715 | 0.452 | 0.231 | 0.142 | 0.821 | 0.786 | 0.799 | 0.739 | 0.8 | 1.05 | 1.12 | 1.01 | 0.975 | 0.995
14 | NCI-H23 | 0.74 | 0.628 | 0.565 | 0.779 | 0.76 | 0.611 | 0.5 | 0.28 | 0.149 | 0.155 | 0.662 | 0.486 | 0.485 | 0.523 | 0.653 | 0.659 | 0.75 | 0.623 | 0.681 | 0.635
15 | NCI-H1395 | 1.12 | 0.937 | 1.08 | 1.2 | 1.03 | 1.05 | 0.812 | 0.553 | 0.343 | 0.365 |  |  |  |  |  | 1.18 | 1.03 | 0.768 | 0.68 | 0.578
16 | NCI-H1650 |  |  |  |  |  |  |  |  |  |  | 0.886 | 1.03 | 0.917 | 0.826 | 0.888 |  |  |  |  | 
17 | NCI-H1793 | 0.968 | 0.783 | 0.548 | 0.511 | 0.766 | 0.804 | 0.801 | 0.732 | 0.513 | 0.276 |  |  |  |  |  | 0.874 | 0.645 | 0.561 | 0.751 | 0.588
